Patent US20090311217A1, “3-SUBSTITUTED-1H-INDOLE COMPOUNDS, THEIR USE AS MTOR KINASE AND PI3 KINASE INHIBITORS, AND THEIR SYNTHESES” (priority 2008, published 2009)

Assays:
PI3K-alpha = PI3K-alpha (Homo sapiens, UniProt P42336); assay: PI3K-alpha fluorescence polarization assay; type: biochemical; conditions: read-out: PI3Kα Avg. IC50
PI3K-gamma = PI3K-gamma (Homo sapiens, UniProt P48736); assay: PI3K-gamma fluorescence polarization assay; type: biochemical; conditions: PI3Kγ Avg. IC50
Procedure: PI3K-Alpha, PI3K-Beta, PI3K-Gamma, and PI3K-delta Fluorescence Polarization Assay Protocols
PI3-Kinase reactions were performed in 5 mM HEPES, pH 7, 2.5 mM MgCl2, and 25 μM ATP, with diC8-PI(4,5)P2 (Echelon, Salt Lake City Utah) as substrate. Nunc 384-well black polypropylene fluorescent plates were used for PI3K assays. Reactions were quenched by the addition of EDTA to a final concentration of 10 mM. Final reaction volumes were 10 μl. For evaluation of PI3K inhibitors, 5 ng of enzyme (PI3K-alpha, beta, gamma, or delta) and 2.5 μM of substrate was used per […] reaction volume, and inhibitor concentrations ranged from 100 μM to 20 μM; the final level of DMSO in reactions never exceeded 2%. Reactions were allowed to proceed for one hour at 25° C. After 1 hour, GST-tagged GRP1 (general receptor for phosphoinositides) PH domain fusion protein was added to a final concentration of 100 nM, and BODIPY-TMRI(1,3,4,5)P4 (Echelon) was also added to a final concentration of 5 nM. Final sample volumes were 25 μl with a final DMSO concentration of 0.8%. Assay Plates were read on Perkin-Elmer Envision plate readers with appropriate filters for Tamra [BODIPY-TMRI(1,3,4,5)P4]. Data obtained were used to calculate enzymatic activity and enzyme inhibition by inhibitor compounds.

Chain of PI3K-gamma (P48736 whole entry, species assumed): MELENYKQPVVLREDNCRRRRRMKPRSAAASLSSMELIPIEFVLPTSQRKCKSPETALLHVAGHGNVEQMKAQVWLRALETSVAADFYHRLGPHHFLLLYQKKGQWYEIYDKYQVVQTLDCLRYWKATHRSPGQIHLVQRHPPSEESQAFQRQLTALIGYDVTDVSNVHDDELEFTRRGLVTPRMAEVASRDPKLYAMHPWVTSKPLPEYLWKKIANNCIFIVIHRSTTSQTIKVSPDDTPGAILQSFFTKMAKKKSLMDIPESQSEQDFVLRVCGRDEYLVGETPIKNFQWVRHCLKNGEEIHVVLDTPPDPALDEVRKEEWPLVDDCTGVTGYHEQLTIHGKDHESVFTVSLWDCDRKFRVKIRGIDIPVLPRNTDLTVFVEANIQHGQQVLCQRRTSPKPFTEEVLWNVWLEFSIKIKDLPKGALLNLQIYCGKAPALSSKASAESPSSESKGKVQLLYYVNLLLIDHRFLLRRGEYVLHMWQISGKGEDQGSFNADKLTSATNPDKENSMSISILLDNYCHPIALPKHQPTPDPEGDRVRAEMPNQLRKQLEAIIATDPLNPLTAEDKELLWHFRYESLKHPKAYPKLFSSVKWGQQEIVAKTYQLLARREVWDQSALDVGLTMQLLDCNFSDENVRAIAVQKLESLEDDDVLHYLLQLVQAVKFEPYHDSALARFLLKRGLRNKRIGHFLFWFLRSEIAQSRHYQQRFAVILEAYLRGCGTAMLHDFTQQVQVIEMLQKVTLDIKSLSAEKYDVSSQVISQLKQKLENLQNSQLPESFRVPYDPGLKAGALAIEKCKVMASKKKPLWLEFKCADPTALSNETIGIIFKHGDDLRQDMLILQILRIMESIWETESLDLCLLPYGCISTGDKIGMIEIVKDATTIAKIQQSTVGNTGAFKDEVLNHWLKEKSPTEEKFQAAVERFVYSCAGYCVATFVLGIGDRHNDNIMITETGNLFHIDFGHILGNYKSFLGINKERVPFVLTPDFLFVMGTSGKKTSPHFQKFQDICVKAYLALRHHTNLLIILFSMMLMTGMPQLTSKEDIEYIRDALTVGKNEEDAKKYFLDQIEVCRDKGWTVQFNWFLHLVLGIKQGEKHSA
Chain of PI3K-alpha (P42336 whole entry, species assumed): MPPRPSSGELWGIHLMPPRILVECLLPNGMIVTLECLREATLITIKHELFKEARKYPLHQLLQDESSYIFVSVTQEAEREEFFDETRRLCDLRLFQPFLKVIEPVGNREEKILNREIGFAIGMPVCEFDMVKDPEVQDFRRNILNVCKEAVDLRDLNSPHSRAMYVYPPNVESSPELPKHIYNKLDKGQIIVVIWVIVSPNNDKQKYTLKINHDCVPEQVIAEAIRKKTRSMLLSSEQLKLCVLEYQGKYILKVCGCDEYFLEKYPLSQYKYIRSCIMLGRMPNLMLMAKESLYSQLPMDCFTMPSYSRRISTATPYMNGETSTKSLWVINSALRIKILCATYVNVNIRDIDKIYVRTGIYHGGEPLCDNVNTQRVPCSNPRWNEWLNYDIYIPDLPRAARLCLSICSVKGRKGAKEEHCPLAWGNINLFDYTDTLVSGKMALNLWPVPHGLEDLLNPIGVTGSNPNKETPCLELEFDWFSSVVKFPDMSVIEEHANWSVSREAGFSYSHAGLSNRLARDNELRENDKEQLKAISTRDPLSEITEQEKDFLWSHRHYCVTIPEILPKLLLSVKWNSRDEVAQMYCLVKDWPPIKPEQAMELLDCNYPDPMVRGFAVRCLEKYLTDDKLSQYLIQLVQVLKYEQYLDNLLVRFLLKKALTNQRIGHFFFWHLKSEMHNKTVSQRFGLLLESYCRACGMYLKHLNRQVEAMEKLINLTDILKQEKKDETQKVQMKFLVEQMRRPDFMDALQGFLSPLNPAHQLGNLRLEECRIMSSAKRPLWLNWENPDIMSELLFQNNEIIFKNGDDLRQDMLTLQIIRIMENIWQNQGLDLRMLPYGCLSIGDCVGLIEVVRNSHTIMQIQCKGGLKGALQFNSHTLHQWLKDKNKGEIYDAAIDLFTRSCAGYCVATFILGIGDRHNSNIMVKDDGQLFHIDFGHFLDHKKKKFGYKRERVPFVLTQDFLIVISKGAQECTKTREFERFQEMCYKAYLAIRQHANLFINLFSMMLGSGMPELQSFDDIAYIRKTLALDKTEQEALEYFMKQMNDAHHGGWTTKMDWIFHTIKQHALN
Chain of PI3K-alpha (P27986 whole entry partner, species assumed): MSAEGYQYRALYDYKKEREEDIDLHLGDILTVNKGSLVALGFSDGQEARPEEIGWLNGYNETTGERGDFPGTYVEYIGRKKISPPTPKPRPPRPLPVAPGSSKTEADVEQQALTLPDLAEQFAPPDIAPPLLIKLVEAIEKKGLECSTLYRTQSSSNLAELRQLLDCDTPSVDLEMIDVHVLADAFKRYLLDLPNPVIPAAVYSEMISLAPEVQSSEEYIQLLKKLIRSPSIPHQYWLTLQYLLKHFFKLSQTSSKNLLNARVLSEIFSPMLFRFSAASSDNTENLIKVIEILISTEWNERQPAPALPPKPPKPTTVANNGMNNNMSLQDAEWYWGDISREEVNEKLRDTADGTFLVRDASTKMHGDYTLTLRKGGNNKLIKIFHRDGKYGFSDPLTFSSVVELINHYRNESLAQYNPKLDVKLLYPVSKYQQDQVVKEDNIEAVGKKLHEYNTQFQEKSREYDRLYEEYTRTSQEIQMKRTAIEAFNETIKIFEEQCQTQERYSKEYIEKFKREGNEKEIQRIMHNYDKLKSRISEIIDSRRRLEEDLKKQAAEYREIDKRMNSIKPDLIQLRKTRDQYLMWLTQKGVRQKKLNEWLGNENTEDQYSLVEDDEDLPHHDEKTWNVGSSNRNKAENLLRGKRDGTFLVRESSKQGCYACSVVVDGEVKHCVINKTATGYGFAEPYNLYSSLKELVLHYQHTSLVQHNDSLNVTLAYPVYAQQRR

Row | Compound | IC50 (PI3K-alpha) [nM] | IC50 (PI3K-gamma) [nM]
1 | CCc1cc(OC)cc2c(/C=C3\Oc4cc(O)cc(O)c4C3=O)cn(CCN3CCN(C)CC3)c12 [Compound 512, (2Z)-2-({7-ethyl-5-methoxy-1-[2-(4-methylpiperazin-1-yl)ethyl]-1H-indol-3-yl}methylene)-4,6-dihydroxy-1-benzofuran-3(2H)-one] | 36.5 | 1400
2 | CNC(=O)c1cc(O)cc2c1C(=O)/C(=C/c1c[nH]c3ccc(OC)cc13)O2 [Compound 513, (2Z)-6-hydroxy-2-[(5-methoxy-1H-indol-3-yl)methylene]-N-methyl-3-oxo-2,3-dihydro-1-benzofuran-4-carboxamide] | 1540 | > 10000
3 | COc1ccc2c(c1)c(/C=C1\Oc3ccc(O)cc3C1=O)cn2CCCC#N [Compound 514, 4-{3-[(Z)-(5-hydroxy-3-oxo-1-benzofuran-2(3H)-ylidene)methyl]-5-methoxy-1Hindol-1-yl}butanenitrile] | 1380 | 4100
4 | COc1ccc2c(c1)c(/C=C1\Oc3ccc(O)cc3C1=O)cn2CCCN(C)C [Compound 515, (2Z)-2-({1-[3-(dimethylamino)propyl]-5-methoxy-1H-indol-3-yl}methylene)-5-hydroxy-1-benzofuran-3(2H)-one] | 1170 | 2510
5 | COc1ccc2[nH]cc(/C=C3\Oc4cc(O)cc(CO)c4C3=O)c2c1 [Compound 517, (2Z)-6-hydroxy-4-(hydroxymethyl)-2-[(5-methoxy-1H-indol-3-yl)methylene]-1-benzofuran-3(2H)-one] | 82.5 | 714
6 | COc1ccc2[nH]cc(/C=C3\Oc4cc(O)cc(C(N)=O)c4C3=O)c2c1 [Compound 518, (2Z)-6-hydroxy-2-[(5-methoxy-1H-indol-3-yl)methylene]-3-oxo-2,3-dihydro-1-benzofuran-4-carboxamide] | 451 | 1150
7 | COc1ccc2c(c1)c(/C=C1\Oc3ccc(O)cc3C1=O)c(C)n2CCN1CCN(C)CC1 [Compound 519] | 273 | 6050
8 | CNC(=O)Nc1ccc2c(c1)C(=O)/C(=C/c1cn(CCCN(C)C)c3ccc(OC)cc13)O2 [Compound 520, 1-[(2Z)-2-({1-[3-(dimethylamino)propyl]-5-methoxy-1H-indol-3-yl}methylene)-3-oxo-2,3-dihydro-1-benzofuran-5-yl]-3-methylurea] | 72.5 | 4020
9 | Cn1c(-c2ccccc2)c(/C=C2\Oc3cc(O)cc(O)c3C2=O)c2c(N)cccc21 [Compound 521, (2Z)-2-[(4-amino-1-methyl-2-phenyl-1H-indol-3-yl)methylene]-4,6-dihydroxy-1-benzofuran-3(2H)-one] | 2470 | 8510
10 | COc1ccc2[nH]cc(/C=C3\Oc4ccc(Br)cc4C3=O)c2c1 [Compound 522, (2Z)-5-bromo-2-[(5-methoxy-1H-indol-3-yl)methylene]-1-benzofuran-3(2H)-one] | > 10000 | > 10000
11 | COc1ccc2[nH]cc(/C=C3\Oc4ccc(C#N)cc4C3=O)c2c1 [Compound 523, (2Z)-2-[(5-methoxy-1H-indol-3-yl)methylene]-3-oxo-2,3-dihydro-1-benzofuran-5-carbonitrile] | > 10000 | > 10000
12 | COc1ccc2[nH]cc(/C=C3\Oc4ccc(-c5nnn[nH]5)cc4C3=O)c2c1 [Compound 524, (2Z)-2-[(5-methoxy-1H-indol-3-yl)methylene]-5-(1H-tetrazol-5-yl)-1-benzofuran-3(2H)-one] | 12000 | > 10000
13 | COc1ccc2c(c1)c(/C=C1\Oc3ccc(NC(C)=O)cc3C1=O)cn2CCCN(C)C [Compound 525, N-[(2Z)-2-({1-[3-(dimethylamino)propyl]-5-methoxy-1H-indol-3-yl}methylene)-3-oxo-2,3-dihydro-1-benzofuran-5-yl]acetamide] | 1270 | > 10000
14 | CNC(=O)Nc1cc(O)cc2c1C(=O)/C(=C/c1c[nH]c3ccc(OC)cc13)O2 [Compound 526, 1-{(2Z)-6-hydroxy-2-[(5-methoxy-1H-indol-3-yl)methylene]-3-oxo-2,3-dihydro-1-benzofuran-4-yl}-3-methylurea] | 6190 | > 10000
15 | Cn1cc(/C=C2\Oc3ccc(Br)cc3C2=O)c2c(-c3ccccc3)cccc21 [Compound 527, (2Z)-5-bromo-2-[(1-methyl-4-phenyl-1H-indol-3-yl)methylene]-1-benzofuran-3(2H)-one] | 2990 | 3810
16 | CNC(=O)Nc1ccc2c(c1)C(=O)/C(=C/c1cn(C)c3cccc(-c4ccccc4)c13)O2 [Compound 528, 1-methyl-3-{(2Z)-2-[(1-methyl-4-phenyl-1H-indol-3-yl)methylene]-3-oxo-2,3-dihydro-1-benzofuran-5-yl}urea] | > 10000 | > 10000
17 | COc1ccc2[nH]cc(/C=C3\Oc4cc(O)c(O)cc4C3=O)c2c1 [Compound 529, (2Z)-5,6-dihydroxy-2-[(5-methoxy-1H-indol-3-yl)methylene]-1-benzofuran-3(2H)-one] | 221 | 8050
18 | Cn1cc(/C=C2\Oc3ccc(O)cc3C2=O)c2c(-c3ccccc3)cccc21 [Compound 530, (2Z)-5-hydroxy-2-[(1-methyl-4-phenyl-1H-indol-3-yl)methylene]-1-benzofuran-3(2H)-one] | > 10000 | > 10000
19 | Cn1cc(/C=C2\Oc3cc(O)cc(O)c3C2=O)c2c(-c3ccccc3)cccc21 [Compound 531, (2Z)-4,6-dihydroxy-2-[(1-methyl-4-phenyl-1H-indol-3-yl)methylene]-1-benzofuran-3(2H)-one] | 340 | 2530
20 | Cn1cc(/C=C2\Oc3ccc(NC(=O)OC(C)(C)C)cc3C2=O)c2c(-c3ccccc3)cccc21 [Compound 532, tert-butyl {(2Z)-2-[(1-methyl-4-phenyl-1H-indol-3-yl)methylene]-3-oxo-2,3-dihydro-1-benzofuran-5-yl}carbamate] | > 10000 | > 10000
21 | CNC(=O)Nc1ccc2c(c1)C(=O)/C(=C/c1c(C3CCCCC3)n(CCN3CCN(C)CC3)c3ccc(OC)cc13)O2 [Compound 533, 1-[(2Z)-2-({2-cyclohexyl-5-methoxy-1-[2-(4-methylpiperazin-1-yl)ethyl]-1H-indol-3-yl}methylene)-3-oxo-2,3-dihydro-1-benzofuran-5-yl]-3-methylurea] | 2.2 | 389
22 | Cn1cc(/C=C2\Oc3ccc(N)cc3C2=O)c2c(-c3ccccc3)cccc21 [Compound 534, (2Z)-5-amino-2-[(1-methyl-4-phenyl-1H-indol-3-yl)methylene]-1-benzofuran-3(2H)-one] | 5880 | 476
23 | Cn1cc(/C=C2\Oc3ccc(NC(=O)Nc4cccnc4)cc3C2=O)c2c(-c3ccccc3)cccc21 [Compound 535, 1-{(2Z)-2-[(1-methyl-4-phenyl-1H-indol-3-yl)methylene]-3-oxo-2,3-dihydro-1-benzofuran-5-yl}-3-pyridin-3-ylurea] | > 10000 | > 10000
24 | CNC(=O)Nc1ccc2c(c1)C(=O)/C(=C/c1c[nH]c3ccc(OC)cc13)O2 [Compound 536, 1-{(2Z)-2-[(5-methoxy-1H-indol-3-yl)methylene]-3-oxo-2,3-dihydro-1-benzofuran-5-yl}-3-methylurea] | 58.5 | 545
25 | COc1ccc2c(c1)c(/C=C1\Oc3ccc(NC(N)=O)cc3C1=O)cn2CCCN(C)C [Compound 537, 1-[(2Z)-2-({1-[3-(dimethylamino)propyl]-5-methoxy-1H-indol-3-yl}methylene)-3-oxo-2,3-dihydro-1-benzofuran-5-yl]urea] | 421 | > 10000
26 | COC(=O)Nc1ccc2c(c1)C(=O)/C(=C/c1cn(CCCN(C)C)c3ccc(OC)cc13)O2 [Compound 538, methyl [(2Z)-2-({1-[3-(dimethylamino)propyl]-5-methoxy-1H-indol-3-yl}methylene)-3-oxo-2,3-dihydro-1-benzofuran-5-yl]carbamate] | 820 | > 10000
27 | CNC(=O)c1ccc2c(c1)C(=O)/C(=C/c1cn(CCCN(C)C)c3ccc(OC)cc13)O2 [Compound 539, (2Z)-2-({1-[3-(dimethylamino)propyl]-5-methoxy-1H-indol-3-yl}methylene)-Nmethyl-3-oxo-2,3-dihydro-1-benzofuran-5-carboxamide] | > 10000 | > 10000
28 | COc1ccc(NC(=O)Nc2ccc3c(c2)C(=O)/C(=C/c2cn(CCCN(C)C)c4ccc(OC)cc24)O3)cc1 [Compound 540, 1-[(2Z)-2-({1-[3-(dimethylamino)propyl]-5-methoxy-1H-indol-3-yl}methylene)-3-oxo-2,3-dihydro-1-benzofuran-5-yl]-3-(4-methoxyphenyl)urea] | 104 | 1550
29 | COc1ccc2c(c1)c(/C=C1\Oc3ccc(CO)cc3C1=O)cn2CCN1CCN(C)CC1 [Compound 541, (2Z)-5-(hydroxymethyl)-2-({5-methoxy-1-[2-(4-methylpiperazin-1-yl)ethyl]-1Hindol-3-yl}methylene)-1-benzofuran-3(2H)-one] | 1380 | 9100
